Source: patent publication US10882860B2, “Treatment of osteoarthritis” (Samumed, LLC, priority 2015, dated 2021)
Like-named read-outs stand apart in the source and are kept apart here.

Legend:
[1] = Dog pharmacokinetics after IA injection (plasma, cartilage, bone, synovial fluid); type: in vivo, beagle dogs; conditions: for % Recovered / Compound of Formula (I) Concentration, Bone / Compound of Formula (I) Concentration, Cartilage / Total Amount Recovered / concentration at 45 day / concentration at 91 day / concentration at 179 day: dogs, IA suspension
Experimental: In rats and dogs, the pharmacokinetic profile, safety profile, tissue distribution and cartilage regeneration following a single intra-articular (IA) injection of the compound of Formula (I) in the plasma and the knee joint (cartilage and bone) was determined. The compound of Formula (I) (Form 1) was formulated as a suspension composition in 0.5% CMC/0.05% Polysorbate 80 in PBS.
A 350 μL suspension of the compound of Formula (I) (Form 1), formulated as described above, and corresponding to 3 and 30 μg/knee, was injected intra-articularly (IA) into the right and left knees of twelve (12) naïve male beagle dogs. On Day 1, blood was collected at 15 minutes immediately after IA injection and on Days 45, 91 and 179, dogs were sacrificed and blood samples and the knee joints were collected. Plasma and tissue concentrations (bone, cartilage and synovial fluid) were determined using the HPLC-MS/MS bioanalytical method with a dynamic range of […] in plasma or 5.00 to […] in tissue.

[2] = type: in vivo, beagle dogs; conditions: dog
Experimental: The local toxicology of Form 1 of the compound of Formula (I) in dogs was studied. The compound of Formula (I) (Form 1) was administered via single or multiple (9 times) intra-articular (IA) injections as a suspension composition in beagle dogs to evaluate local toxicity.
After IA injection, the right stifle joint was histologically evaluated for inflammation, cartilage health, bone density, etc. Toxicology was evaluated immediately after a single or multiple (3 or 9 once-monthly) IA injections.

[3] = test system: moderate-to-severe symptomatic knee OA subjects; test: Phase 1 clinical study: biomarkers (COMP, βCTX, P1NP); type: in vivo, human
Text: The study was a first-in-human, multicenter, 24-week, placebo-controlled, single-dose, dose-escalation safety study of a Wnt pathway inhibitor in subjects suffering from moderate to severe symptomatic knee OA. The sample size was 20 subjects (randomized 4:1, 16 active: 4 placebo) per dosing cohort. Inclusion criteria included: Age, 50-75 years; Western Ontario and McMaster Universities Arthritis Index (WOMAC) Total score, 36-72 (out of 96); Kellgren-Lawrence grade, 2 or 3; and a willingness to omit pain medication for 24 hours prior to pain assessments. Exclusion criteria included: BMI>40; and treatment with IA steroids within 2 months or HA derivatives within 6 months prior to injection. A full list of the inclusion and exclusion criteria for this study can be found on clinicaltrials.gov (NCT02095548).
The dosing sequence included suspension compositions of either 0.03 mg, 0.07 mg, or 0.23 mg of the compound of Formula (I) (Form 1) per 2 mL injection in a vehicle containing 0.5% carboxymethylcellulose sodium and 0.05% polysorbate 80 in pH 7.4 phosphate buffered saline. The placebo contained only the diluent of 0.5% carboxymethylcellulose sodium and 0.05% polysorbate 80 in pH 7.4 phosphate buffered saline. The subjects were given a single, intra-articular injection in the target knee on Treatment Day 1 and participated in a follow-up period of 24 weeks.
Safety, pharmacokinetics (PK), biomarker, and efficacy data were collected at baseline and during the 24-week follow-up period. Safety data included adverse events (AEs), concomitant medications, clinical laboratory sampling, medical history, vital signs, ECGs, hip bone density (DXA) analysis, qCT of the target knee, and evaluation of bone edema via MM. For PK data, samples were collected 0, 4, and 24 hours post dose, and at Weeks 4 and 12. Biomarker data included data for procollagen type 1 N-propeptide (P1NP), beta C-terminal telopeptide of type 1 collagen (βCTX), and cartilage oligomeric matrix protein (COMP). Efficacy data included measurements of WOMAC Total score, WOMAC Function and Pain subscores, pain VAS, Physician Global Assessment of Disease Activity, MM, and radiographs. Efficacy assessments were used to determine the percentage of OMERACT-OARSI “strict” responders. Exploratory analyses of efficacy outcomes were conducted using a baseline-adjusted repeated measures analysis of covariance (ANCOVA) in the Intention-to-Treat (ITT) population. The sponsor was unblinded after Week 12 for each cohort; site investigators remained blinded. All AEs reported in this study were […]. Investigator opinion regarding whether AEs were related to the compound of Formula (I) was also collected for informational purposes.

[4] = dog, up to 30 μg/knee, 179 days

In the case of `CC(C)CC(=O)Nc1cncc(-c2ccc3[nH]nc(-c4nc5c(-c6cccc(F)c6)cncc5[nH]4)c3c2)c1` [compound of Formula (I)], the “% of administered dose recovered” value ([1]; dog, 3 μg/knee, Day 45) is reported as 5.1%, the total amount recovered from cartilage and bone tissues from the tibia ([1]; dog, 3 μg/knee, Day 45) is reported as 152 ng and the “% of administered dose recovered” value ([1]; dog, 3 μg/knee, Day 91) is reported as 0.55%. The total amount recovered from cartilage and bone tissues from the tibia ([1]; dog, 3 μg/knee, Day 91) was 16.6 ng, the “% of administered dose recovered” value ([1]; dog, 3 μg/knee, Day 179) was 2.5% and the total amount recovered from cartilage and bone tissues from the tibia ([1]; dog, 3 μg/knee, Day 179) was 79 ng. The “% of administered dose recovered” value ([1]; dog, 30 μg/knee, Day 45) was 16.8%, the total amount recovered from cartilage and bone tissues from the tibia ([1]; dog, 30 μg/knee, Day 45) was 5060 ng and the “% of administered dose recovered” value ([1]; dog, 30 μg/knee, Day 91) was 7.25%. For the same compound, the total amount recovered from cartilage and bone tissues from the tibia ([1]; dog, 30 μg/knee, Day 91) was 2250 ng, the “% of administered dose recovered” value ([1]; dog, 30 μg/knee, Day 179) was 7.03% and the total amount recovered from cartilage and bone tissues from the tibia ([1]; dog, 30 μg/knee, Day 179) was 2110 ng. For the same compound, the systemic exposure ([1]; dog, up to 30 μg/knee, 15 minutes post-dose) was “no measurable systemic exposure”, the “adverse effects from intra-articular administration” value [1, 4] was “no adverse effects” and the mortality [1, 4] was “no mortality”. For the same compound, the “% Recovered” value ([1]; 3 μg/knee, Day 45) was 5.1%, the “Compound of Formula (I) Concentration, Bone” value (shortened to “Compound of Formula … Bone”) ([1]; 3 μg/knee, Day 45) was “[22] nM” and the “Compound of Formula (I) Concentration, Cartilage” value (“Compound of Formula … Cartilage” below) ([1]; 3 μg/knee, Day 45) was “[301] nM”. For the same compound, the “Total Amount Recovered” value ([1]; 3 μg/knee, Day 45) was 152 ng, the “% Recovered” value ([1]; 3 μg/knee, Day 91) was 0.55% and the “Compound of Formula … Bone” value ([1]; 3 μg/knee, Day 91) was “BQL”. For the same compound, the “Compound of Formula … Cartilage” value ([1]; 3 μg/knee, Day 91) was “[73] nM”, the “Total Amount Recovered” value ([1]; 3 μg/knee, Day 91) was 16.6 ng and the “% Recovered” value ([1]; 3 μg/knee, Day 179) was 2.6%. The “Compound of Formula … Bone” value ([1]; 3 μg/knee, Day 179) was 12.8 ng/g and [25] nM, the “Compound of Formula … Cartilage” value ([1]; 3 μg/knee, Day 179) was 63.7 ng/g and [126] nM and the “Total Amount Recovered” value ([1]; 3 μg/knee, Day 179) was 79.0 ng. The “% Recovered” value ([1]; 30 μg/knee, Day 45) was 16.9%, the “Compound of Formula … Bone” value ([1]; 30 μg/knee, Day 45) was “[1160] nM” and the “Compound of Formula … Cartilage” value ([1]; 30 μg/knee, Day 45) was “[8960] nM”. For the same compound, the “Total Amount Recovered” value ([1]; 30 μg/knee, Day 45) was 5057 ng, the “% Recovered” value ([1]; 30 μg/knee, Day 91) was 7.4% and the “Compound of Formula … Bone” value ([1]; 30 μg/knee, Day 91) was “[234] nM”. The “Compound of Formula … Cartilage” value ([1]; 30 μg/knee, Day 91) was “[4609] nM”, the “Total Amount Recovered” value ([1]; 30 μg/knee, Day 91) was 2175 ng and the “% Recovered” value ([1]; 30 μg/knee, Day 179) was 7.0%. For the same compound, the “Compound of Formula … Bone” value ([1]; 30 μg/knee, Day 179) was “[2289] nM”, the “Compound of Formula … Cartilage” value ([1]; 30 μg/knee, Day 179) was “[228] nM” and the “Total Amount Recovered” value ([1]; 30 μg/knee, Day 179) was 2109 ng. The concentration at 45 day ([1]; male, beagle, dog, bone, other: intra-articular, 3 μg/knee, Day 45, read-out: Compound of Formula (I) Concentration, Bone) was 11.2 ng/g, the concentration at 45 day ([1]; male, beagle, dog, bone, other: intra-articular, 30 μg/knee, Day 45, read-out: Compound of Formula (I) Concentration, Bone) was 586 ng/g and the concentration at 91 day ([1]; male, beagle, dog, bone, other: intra-articular, 30 μg/knee, Day 91, read-out: Compound of Formula (I) Concentration, Bone) was 118 ng/g. For the same compound, the concentration at 179 day ([1]; male, beagle, dog, bone, other: intra-articular, 30 μg/knee, Day 179, read-out: Compound of Formula (I) Concentration, Bone) was 1160 ng/g, the concentration at 45 day ([1]; male, beagle, dog, cartilage, other: intra-articular, 3 μg/knee, Day 45, read-out: Compound of Formula (I) Concentration, Cartilage) was 152 ng/g and the concentration at 91 day ([1]; male, beagle, dog, cartilage, other: intra-articular, 3 μg/knee, Day 91, read-out: Compound of Formula (I) Concentration, Cartilage) was 37 ng/g. The concentration at 45 day ([1]; male, beagle, dog, cartilage, other: intra-articular, 30 μg/knee, Day 45, read-out: Compound of Formula (I) Concentration, Cartilage) was 4520 ng/g, the concentration at 91 day ([1]; male, beagle, dog, cartilage, other: intra-articular, 30 μg/knee, Day 91, read-out: Compound of Formula (I) Concentration, Cartilage) was 2330 ng/g and the concentration at 179 day ([1]; male, beagle, dog, cartilage, other: intra-articular, 30 μg/knee, Day 179, read-out: Compound of Formula (I) Concentration, Cartilage) was 115 ng/g. The concentration at 15 min ([1]; male, beagle, plasma, other: intra-articular, dog, 15 min post-dose, 3 or 30 μg/knee, BQL) was less than 2000 ng/mL, the “finding at the injection site of high-dose animals (synovium and extra-articular tissues)” value ([2]; in vivo) was “local inflammatory response” and the “no observed adverse effect level (NOAEL)” value ([2]; in vivo) was 1.75 mg/knee. For the same compound, the “histopathological effects in the bone and cartilage” value ([2]; single IA injection 0.07, 1.75 and 35 mg) was “no adverse histopathological effects”, the “change in COMP” value ([3]; 0.03 mg cohort) was “no significant changes” and the reduction in cartilage oligomeric matrix protein (COMP) ([3]; 0.07 mg cohort, Week 12, P=0.001) was 130 ng/mL. The “change in COMP” value ([3]; 0.23 mg cohort) was “no significant changes” and the “change in βCTX or P1NP” value ([3]; any treatment group) was “no significant changes”.
